{
  "source": "paper PMC9097188",
  "about": "“Design, Synthesis, and Molecular Modeling Studies of a Novel Benzimidazole as an Aromatase Inhibitor” (ACS Omega, 2022)",
  "origin": "cited, not measured here",
  "data": [
    {"target": "aromatase", "details": "3D-QSAR data set, IC50 converted to pIC50; SI reference list; cited from earlier work", "values": [
      {"compound": "Cc1ccc(S(=O)(=O)NCCc2c(C(c3ccccc3)c3[nH]c4ccccc4c3CCNS(=O)(=O)c3ccc(C)cc3)[nH]c3ccccc23)cc1", "note": "[compound 29]", "Experimental pIC50": 4.924},
      {"compound": "O=[N+]([O-])c1ccc(S(=O)(=O)NCCc2c(C(c3ccccc3)c3[nH]c4ccccc4c3CCNS(=O)(=O)c3ccc([N+](=O)[O-])cc3)[nH]c3ccccc23)cc1", "note": "[compound 30]", "Experimental pIC50": 4.951},
      {"compound": "COc1ccc(S(=O)(=O)NCCc2c(C(c3ccccc3)c3[nH]c4ccccc4c3CCNS(=O)(=O)c3ccc(OC)cc3)[nH]c3ccccc23)cc1", "note": "[compound 31]", "Experimental pIC50": 5.456},
      {"compound": "O=[N+]([O-])c1ccc(C(c2[nH]c3ccccc3c2CCNS(=O)(=O)c2ccc(Br)cc2)c2[nH]c3ccccc3c2CCNS(=O)(=O)c2ccc(Br)cc2)cc1", "note": "[compound 32]", "Experimental pIC50": 5.569},
      {"compound": "O=[N+]([O-])c1ccc(C(c2[nH]c3ccccc3c2CCNS(=O)(=O)c2ccc(C(F)(F)F)cc2)c2[nH]c3ccccc3c2CCNS(=O)(=O)c2ccc(C(F)(F)F)cc2)cc1", "note": "[compound 34]", "Experimental pIC50": 5.398},
      {"compound": "N#Cc1ccc(C(c2[nH]c3ccccc3c2CCNS(=O)(=O)c2ccc(Cl)cc2)c2[nH]c3ccccc3c2CCNS(=O)(=O)c2ccc(Cl)cc2)cc1", "note": "[compound 35]", "Experimental pIC50": 5.260},
      {"compound": "N#Cc1ccc(C(c2[nH]c3ccccc3c2CCNS(=O)(=O)c2ccc(F)cc2)c2[nH]c3ccccc3c2CCNS(=O)(=O)c2ccc(F)cc2)cc1", "note": "[compound 36]", "Experimental pIC50": 5.009},
      {"compound": "N#Cc1ccc(C(c2[nH]c3ccccc3c2CCNS(=O)(=O)c2ccc(C(F)(F)F)cc2)c2[nH]c3ccccc3c2CCNS(=O)(=O)c2ccc(C(F)(F)F)cc2)cc1", "note": "[compound 37]", "Experimental pIC50": 4.815},
      {"compound": "O=S(=O)(NCCc1c(C(c2ccc(Br)cc2)c2[nH]c3ccccc3c2CCNS(=O)(=O)c2ccc(Cl)cc2)[nH]c2ccccc12)c1ccc(Cl)cc1", "note": "[compound 38]", "Experimental pIC50": 5.569},
      {"compound": "O=S(=O)(NCCc1c(C(c2ccc(Br)cc2)c2[nH]c3ccccc3c2CCNS(=O)(=O)c2ccc(C(F)(F)F)cc2)[nH]c2ccccc12)c1ccc(C(F)(F)F)cc1", "note": "[compound 39]", "Experimental pIC50": 5.469},
      {"compound": "O=S(=O)(NCCc1c(C(c2ccc(F)cc2)c2[nH]c3ccccc3c2CCNS(=O)(=O)c2ccc(Br)cc2)[nH]c2ccccc12)c1ccc(Br)cc1", "note": "[compound 40]", "Experimental pIC50": 5.119},
      {"compound": "O=S(=O)(NCCc1c(C(c2ccc(F)cc2)c2[nH]c3ccccc3c2CCNS(=O)(=O)c2ccc(Cl)cc2)[nH]c2ccccc12)c1ccc(Cl)cc1", "note": "[compound 41]", "Experimental pIC50": 5.268},
      {"compound": "O=S(=O)(NCCc1c(C(c2ccc(F)cc2)c2[nH]c3ccccc3c2CCNS(=O)(=O)c2ccc(C(F)(F)F)cc2)[nH]c2ccccc12)c1ccc(C(F)(F)F)cc1", "note": "[compound 42]", "Experimental pIC50": 5.357},
      {"compound": "O=S(=O)(NCCc1c(C(c2ccc(C(F)(F)F)cc2)c2[nH]c3ccccc3c2CCNS(=O)(=O)c2ccc(Br)cc2)[nH]c2ccccc12)c1ccc(Br)cc1", "note": "[compound 43]", "Experimental pIC50": 5.420},
      {"compound": "O=S(=O)(NCCc1c(C(c2ccc(C(F)(F)F)cc2)c2[nH]c3ccccc3c2CCNS(=O)(=O)c2ccc(Cl)cc2)[nH]c2ccccc12)c1ccc(Cl)cc1", "note": "[compound 44]", "Experimental pIC50": 5.495},
      {"compound": "O=S(=O)(NCCc1c(C(c2ccc(C(F)(F)F)cc2)c2[nH]c3ccccc3c2CCNS(=O)(=O)c2ccc(C(F)(F)F)cc2)[nH]c2ccccc12)c1ccc(C(F)(F)F)cc1", "note": "[compound 45]", "Experimental pIC50": 5.638},
      {"compound": "COc1ccc(S(=O)(=O)NCCc2c(C(c3ccc(O)cc3)c3[nH]c4ccccc4c3CCNS(=O)(=O)c3ccc(OC)cc3)[nH]c3ccccc23)cc1", "note": "[compound 46]", "Experimental pIC50": 6.155},
      {"compound": "O=S(=O)(NCCc1c(C(c2ccc(O)cc2)c2[nH]c3ccccc3c2CCNS(=O)(=O)c2ccc(Cl)cc2)[nH]c2ccccc12)c1ccc(Cl)cc1", "note": "[compound 47]", "Experimental pIC50": 5.854},
      {"compound": "O=S(=O)(NCCc1c(C(c2ccc(O)cc2)c2[nH]c3ccccc3c2CCNS(=O)(=O)c2ccc(C(F)(F)F)cc2)[nH]c2ccccc12)c1ccc(C(F)(F)F)cc1", "note": "[compound 48]", "Experimental pIC50": 5.886},
      {"compound": "O=[N+]([O-])c1ccc(S(=O)(=O)NCCc2c(C(c3ccc(O)cc3)c3[nH]c4ccccc4c3CCNS(=O)(=O)c3ccc([N+](=O)[O-])cc3)[nH]c3ccccc23)cc1", "note": "[compound 49]", "Experimental pIC50": 5.638},
      {"compound": "Cc1ccc(S(=O)(=O)NCCc2c(C(c3ccccc3O)c3[nH]c4ccccc4c3CCNS(=O)(=O)c3ccc(C)cc3)[nH]c3ccccc23)cc1", "note": "[compound 50]", "Experimental pIC50": 5.387},
      {"compound": "O=[N+]([O-])c1ccc(S(=O)(=O)NCCc2c(C(c3ccccc3O)c3[nH]c4ccccc4c3CCNS(=O)(=O)c3ccc([N+](=O)[O-])cc3)[nH]c3ccccc23)cc1", "note": "[compound 51]", "Experimental pIC50": 5.553},
      {"compound": "COc1ccc(S(=O)(=O)NCCc2c(C(c3ccccc3O)c3[nH]c4ccccc4c3CCNS(=O)(=O)c3ccc(OC)cc3)[nH]c3ccccc23)cc1", "note": "[compound 52]", "Experimental pIC50": 6.097},
      {"compound": "O=S(=O)(NCCc1c(C(c2ccccc2O)c2[nH]c3ccccc3c2CCNS(=O)(=O)c2ccc(Cl)cc2)[nH]c2ccccc12)c1ccc(Cl)cc1", "note": "[compound 53]", "Experimental pIC50": 5.377},
      {"compound": "O=[N+]([O-])c1cccc(S(=O)(=O)NCCc2c(C(c3ccccc3O)c3[nH]c4ccccc4c3CCNS(=O)(=O)c3cccc([N+](=O)[O-])c3)[nH]c3ccccc23)c1", "note": "[compound 54]", "Experimental pIC50": 5.770},
      {"compound": "O=[N+]([O-])c1ccccc1S(=O)(=O)NCCc1c(C(c2ccccc2O)c2[nH]c3ccccc3c2CCNS(=O)(=O)c2ccccc2[N+](=O)[O-])[nH]c2ccccc12", "note": "[compound 55]", "Experimental pIC50": 5.337},
      {"compound": "COc1ccc(S(=O)(=O)NCCc2c(C(c3cc(OC)c(O)c(OC)c3)c3[nH]c4ccccc4c3CCNS(=O)(=O)c3ccc(OC)cc3)[nH]c3ccccc23)cc1", "note": "[compound 56]", "Experimental pIC50": 5.602},
      {"compound": "O=S(=O)(NCCc1c(C(c2ccc3c(c2)Cc2ccccc2-3)c2[nH]c3ccccc3c2CCNS(=O)(=O)c2ccc(Cl)cc2)[nH]c2ccccc12)c1ccc(Cl)cc1", "note": "[compound 57]", "Experimental pIC50": 5.056},
      {"compound": "CCn1c2ccccc2c2cc(C(c3[nH]c4ccccc4c3CCNS(=O)(=O)c3ccccc3)c3[nH]c4ccccc4c3CCNS(=O)(=O)c3ccccc3)ccc21", "note": "[compound 58]", "Experimental pIC50": 5.409},
      {"compound": "COc1ccc(S(=O)(=O)NCCc2c(C3(c4[nH]c5ccccc5c4CCNS(=O)(=O)c4ccc(OC)cc4)C(=O)Nc4ccccc43)[nH]c3ccccc23)cc1", "note": "[compound 59]", "Experimental pIC50": 5.553},
      {"compound": "O=C1Nc2ccccc2C1(c1[nH]c2ccccc2c1CCNS(=O)(=O)c1ccc(Cl)cc1)c1[nH]c2ccccc2c1CCNS(=O)(=O)c1ccc(Cl)cc1", "note": "[compound 60]", "Experimental pIC50": 5.081},
      {"compound": "O=C1Nc2ccccc2C1(c1[nH]c2ccccc2c1CCNS(=O)(=O)c1cccc([N+](=O)[O-])c1)c1[nH]c2ccccc2c1CCNS(=O)(=O)c1cccc([N+](=O)[O-])c1", "note": "[compound 61]", "Experimental pIC50": 4.924},
      {"compound": "O=C1Nc2ccccc2C1(c1[nH]c2ccccc2c1CCNS(=O)(=O)c1ccccc1[N+](=O)[O-])c1[nH]c2ccccc2c1CCNS(=O)(=O)c1ccccc1[N+](=O)[O-]", "note": "[compound 62]", "Experimental pIC50": 5.009}
    ]}
  ]
}
